From ChEMBL document CHEMBL3244274, “Antiallergic 9-oxo-11-hydroxy-5H,9H-[2]benzopyrano[4,3-g][1]benzopyrans” (J Med Chem, 1978)
≈ marks a conversion by molar mass, not a printed value.

How the values were obtained:
Rattus norvegicus [1] = test: Antiallergic activity in adrenalectomized Sprague-Dawley rat assessed as inhibition of egg albumin-induced passive cutaneous anaphylaxis reaction at 10 mg/kg, iv after 30 mins by Evans blue staining; assay type: functional; details: 0.5 h
Ileum [2] = test: Antiallergic activity in guinea pig ileum strips assessed as inhibition of serotonin-induced anaphylaxis; assay type: functional, tissue-based; details: Cavia porcellus
Ileum [3] = test: Antiallergic activity in guinea pig ileum strips assessed as inhibition of bradykinin-induced anaphylaxis; assay type: functional, tissue-based; details: Cavia porcellus
Stomach [4] = test: Antiallergic activity in rat stomach strips assessed as inhibition of PGE2-induced anaphylaxis; assay type: functional, tissue-based
Stomach [5] = test: Antiallergic activity in rat stomach strips assessed as inhibition of […]-induced anaphylaxis; assay type: functional, tissue-based
Rattus norvegicus [6] = test: Antiallergic activity in iv dosed adrenalectomized Sprague-Dawley rat assessed as inhibition of egg albumin-induced passive cutaneous anaphylaxis reaction after 30 mins by Evans blue staining; assay type: functional; details: 0.5 h
Ileum [7] = test: Antiallergic activity in guinea pig ileum strips assessed as inhibition of histamine-induced anaphylaxis; assay type: functional, tissue-based; details: Cavia porcellus
[8] = Antiallergic activity in guinea pig lung tissue assessed as inhibition of SRS-A production; assay type: functional, tissue-based, Cavia porcellus
Stomach [9] = test: Antiallergic activity in rat stomach strips assessed as inhibition of PGE2-induced anaphylaxis at 25 ug/ml; assay type: functional
Stomach [10] = test: Antiallergic activity in rat stomach strips assessed as inhibition of […]-induced anaphylaxis at 25 ug/ml; assay type: functional
Stomach [11] = test: Antiallergic activity in rat stomach strips assessed as inhibition of […]-induced anaphylaxis at 100 ug/ml; assay type: functional
[12] = Antiallergic activity in guinea pig lung tissue assessed as inhibition of SRS-A production at 1 ug/ml; assay type: functional; details: Cavia porcellus
Rattus norvegicus [13] = test: Antiallergic activity in adrenalectomized Sprague-Dawley rat assessed as inhibition of egg albumin-induced passive cutaneous anaphylaxis reaction at 3 mg/kg, iv after 30 mins by Evans blue staining; assay type: functional; details: 0.5 h
Rattus norvegicus [14] = test: Toxicity in adrenalectomized Sprague-Dawley rat at 10 mg/kg, iv; assay type: organism-based; design: dose 10 mg/kg, route intravenous; details: in vivo

Row | SMILES | inhibition in vivo at 10 mg/kg (Rattus norvegicus [1]) | EC50 (Ileum [2]) | EC50 (Ileum [3]) | EC50 (Stomach [4]) | EC50 (Stomach [5]) | ED50 (Rattus norvegicus [6]) | EC50 (Ileum [7]) | EC50 [8] | inhibition at 25 µg/mL (Stomach [9]) | inhibition at 25 µg/mL (Stomach [10]) | inhibition at 100 µg/mL (Stomach [11]) | inhibition at 1 µg/mL [12] | inhibition in vivo at 3 mg/kg (Rattus norvegicus [13]) | Activity (Rattus norvegicus [14])
1 | CC1(C)Oc2cc3oc(=O)cc([O-])c3cc2-c2ccc(OCCO)cc21.[Na+] | 87% | 11 µg/mL | 92 µg/mL | 62 µg/mL | 16 µg/mL | 0.3 mg/kg | > 200 µg/mL | – | – | – | – | – | – | –
2 | COc1cc2c(cc1Br)-c1cc3c([O-])cc(=O)oc3cc1OC2(C)C.[Na+] | 33% | 4.4 µg/mL | 51 µg/mL | 55 µg/mL | 14 µg/mL | – | 39 µg/mL | 28 µg/mL | – | – | – | – | – | –
3 | CCCOc1ccc2c(c1)C(C)(C)Oc1cc3oc(=O)cc([O-])c3cc1-2.[Na+] | 0% | 4.7 µg/mL | 14 µg/mL | 70 µg/mL | – | – | 7 µg/mL | – | – | – | – | – | – | –
4 | CC1(C)Oc2cc3oc(=O)cc([O-])c3cc2-c2ccc(O)cc21.[Na+] | 61% | 15 µg/mL | 84 µg/mL | 40 µg/mL | 47 µg/mL | – | > 200 µg/mL | 13 µg/mL | – | – | – | – | – | –
5 | CN1CCC(=C2c3ccccc3C=Cc3ccccc32)CC1 [CYPROHEPTADINE] | 51% | 0.04 µg/mL (≈ 0.139 µM) | 2 µg/mL (≈ 6.96 µM) | 25 µg/mL (≈ 87 µM) | 65 µg/mL (≈ 226 µM) | – | 0.04 µg/mL (≈ 0.139 µM) | < 1 µg/mL | 54% | 33% | 74% | 62% | 30% | Toxic
6 | COc1ccc2c(c1)C(C)(C)Oc1cc3oc(=O)cc([O-])c3cc1-2.[Na+] | 67% | 16 µg/mL | 9.2 µg/mL | 68 µg/mL | 23 µg/mL | 9 mg/kg | 13.2 µg/mL | – | – | – | – | – | – | –
7 | CC1(C)Oc2cc3oc(=O)cc([O-])c3cc2-c2ccc(Cl)cc21.[Na+] | 0% | 10.2 µg/mL | 5.3 µg/mL | 45 µg/mL | – | – | 21 µg/mL | – | – | – | – | – | – | –
8 | CC1(C)Oc2cc3oc(=O)cc([O-])c3cc2-c2ccccc21.[Na+] | 67% | 10.2 µg/mL | 17 µg/mL | 56 µg/mL | 26 µg/mL | – | 55 µg/mL | – | – | – | – | – | – | –
9 | O=C([O-])c1cc(=O)c2c(OCC(O)COc3cccc4oc(C(=O)[O-])cc(=O)c34)cccc2o1.[Na+].[Na+] [CROMOLYN SODIUM] | 80% | > 200 µg/mL | > 200 µg/mL | > 200 µg/mL | > 200 µg/mL | 2.9 mg/kg | > 200 µg/mL | > 200 µg/mL | – | – | – | – | – | –
10 | CC1(C)Oc2cc3oc(=O)cc(O)c3cc2-c2ccc(F)cc21 | 60% | – | – | – | – | – | – | – | – | – | – | – | – | –
11 | Cc1c2c(cc3oc(=O)cc([O-])c13)OC(C)(C)c1ccccc1-2.[Na+] | 0% | 4.8 µg/mL | 17.5 µg/mL | – | – | – | 14.5 µg/mL | – | – | – | – | – | – | –
12 | CC1(C)Oc2cc3oc(C(=O)O)cc(=O)c3cc2-c2ccccc21.NCCO | 81% | 92 µg/mL | 145 µg/mL | 70 µg/mL | 17 µg/mL | 0.5 mg/kg | 150 µg/mL | 32 µg/mL | – | – | – | – | – | –
